US20260232763A1 (Kadmon Corporation, LLC, priority 2023, published 2026)
Values joined by “and” are separate entries in the source; they are usually repeats but may differ in a detail not shown here. Equal entries are not always repeated.

Key:
rats = details: oral; cited from earlier work
CYP3A4 = CYP3A4 (Homo sapiens, UniProt P08684); test: in vitro metabolism; assay type: in vitro ADME; details: in vitro assessments
CYP1A2 = target: T1, CYP1A2 (Homo sapiens, UniProt P05177); details: in vitro; cited from earlier work
T1 sequence (P05177 1-516): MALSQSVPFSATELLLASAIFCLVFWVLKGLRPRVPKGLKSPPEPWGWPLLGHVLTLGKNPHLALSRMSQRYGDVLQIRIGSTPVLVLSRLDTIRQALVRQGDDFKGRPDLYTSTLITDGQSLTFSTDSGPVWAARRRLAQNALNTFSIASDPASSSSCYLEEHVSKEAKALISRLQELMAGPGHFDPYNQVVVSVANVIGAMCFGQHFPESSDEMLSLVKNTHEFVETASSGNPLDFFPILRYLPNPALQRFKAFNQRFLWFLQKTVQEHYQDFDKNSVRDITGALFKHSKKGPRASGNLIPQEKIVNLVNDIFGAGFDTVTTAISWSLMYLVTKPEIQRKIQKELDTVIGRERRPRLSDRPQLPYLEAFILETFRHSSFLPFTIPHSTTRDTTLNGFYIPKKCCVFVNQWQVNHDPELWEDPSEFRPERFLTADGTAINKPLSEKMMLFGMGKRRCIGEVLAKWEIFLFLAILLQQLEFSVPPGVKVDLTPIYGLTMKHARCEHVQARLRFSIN

clinical = details: male, human, in vivo
Procedure: On Day 10, the victim and perpetrator IMPs were administered simultaneously.
On the evening before each dose, participants were provided with a light snack and were required to fast from all food and drink (except water) for a minimum of 10 hours until the following morning. All study interventions were administered in the fed state, following completion of a standard breakfast (with dosing planned to occur 30 minutes after the start of the breakfast).
The PK parameters underwent a natural logarithmic transformation and were analyzed using a mixed effect modelling technique. Adjusted geometric mean ratios and 90% confidence intervals (CIs) of the ratios were obtained for each comparison. The ratio was defined as test/reference. In addition, the intraparticipant variability were also presented. […] No formal interim analyses were performed for this study.

[1] = healthy subjects, cited from earlier work
[2] = tested on: human […]1-acid glycoprotein; details: in vitro; cited from earlier work
pregnant rabbits = details: cited from earlier work
[3] = dosage range of 200 and 400 mg; cited from earlier work
solubility = assay type: physicochemical; details: in vitro assessments
BCRP = target: T2, BCRP (Homo sapiens, UniProt Q9UNQ0); details: in vitro, at clinically relevant concentrations; cited from earlier work
T2 sequence (Q9UNQ0 1-655): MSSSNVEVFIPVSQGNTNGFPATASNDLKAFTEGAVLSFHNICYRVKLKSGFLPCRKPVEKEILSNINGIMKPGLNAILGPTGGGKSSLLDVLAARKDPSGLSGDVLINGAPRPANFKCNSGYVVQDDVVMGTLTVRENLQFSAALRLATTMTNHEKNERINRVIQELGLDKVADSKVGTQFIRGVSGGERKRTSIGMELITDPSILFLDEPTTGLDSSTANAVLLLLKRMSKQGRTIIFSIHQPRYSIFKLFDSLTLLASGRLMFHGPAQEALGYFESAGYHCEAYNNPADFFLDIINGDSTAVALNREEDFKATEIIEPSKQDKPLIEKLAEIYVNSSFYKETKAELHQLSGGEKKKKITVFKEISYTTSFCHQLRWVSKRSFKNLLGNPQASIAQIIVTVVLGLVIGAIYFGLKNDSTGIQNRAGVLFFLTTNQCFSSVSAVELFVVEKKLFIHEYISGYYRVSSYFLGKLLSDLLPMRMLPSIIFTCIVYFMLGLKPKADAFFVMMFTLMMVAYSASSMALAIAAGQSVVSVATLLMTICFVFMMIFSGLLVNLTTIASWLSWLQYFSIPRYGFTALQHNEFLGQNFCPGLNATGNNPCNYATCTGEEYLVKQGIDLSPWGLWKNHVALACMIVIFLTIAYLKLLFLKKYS

pregnant rats = details: cited from earlier work
UGT1A1 = target: T3, UGT1A1 (Homo sapiens, UniProt P22309); details: in vitro; cited from earlier work
T3 sequence (P22309 26-533): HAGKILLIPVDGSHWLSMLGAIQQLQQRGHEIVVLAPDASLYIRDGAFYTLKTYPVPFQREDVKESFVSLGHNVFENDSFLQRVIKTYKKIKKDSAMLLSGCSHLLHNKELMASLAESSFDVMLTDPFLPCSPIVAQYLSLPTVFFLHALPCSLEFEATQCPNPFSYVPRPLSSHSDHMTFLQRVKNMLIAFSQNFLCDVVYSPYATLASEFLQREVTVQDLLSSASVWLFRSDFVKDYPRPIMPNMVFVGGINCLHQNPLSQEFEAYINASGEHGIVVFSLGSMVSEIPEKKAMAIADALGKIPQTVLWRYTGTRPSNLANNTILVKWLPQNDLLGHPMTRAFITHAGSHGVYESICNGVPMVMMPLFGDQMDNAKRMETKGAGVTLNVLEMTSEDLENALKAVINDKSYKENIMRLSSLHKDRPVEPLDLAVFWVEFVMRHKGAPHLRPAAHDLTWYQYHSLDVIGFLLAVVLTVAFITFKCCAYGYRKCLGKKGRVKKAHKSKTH

[4] = single oral dose of radiolabeled belumosudil

CYP3A4, sequence (P08684 whole entry): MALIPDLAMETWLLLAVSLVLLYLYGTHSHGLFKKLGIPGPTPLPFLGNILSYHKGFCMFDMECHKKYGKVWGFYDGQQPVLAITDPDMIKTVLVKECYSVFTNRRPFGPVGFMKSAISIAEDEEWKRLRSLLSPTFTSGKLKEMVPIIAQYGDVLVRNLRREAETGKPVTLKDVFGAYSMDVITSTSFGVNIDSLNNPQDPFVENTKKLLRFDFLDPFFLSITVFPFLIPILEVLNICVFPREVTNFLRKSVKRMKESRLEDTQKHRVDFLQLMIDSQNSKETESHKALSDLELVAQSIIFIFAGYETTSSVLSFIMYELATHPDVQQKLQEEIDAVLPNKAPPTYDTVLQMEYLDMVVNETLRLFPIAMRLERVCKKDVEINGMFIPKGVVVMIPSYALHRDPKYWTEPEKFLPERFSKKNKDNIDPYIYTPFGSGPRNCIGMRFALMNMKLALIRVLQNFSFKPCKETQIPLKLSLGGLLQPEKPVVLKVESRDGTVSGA

CC(C)NC(=O)COc1cccc(-c2nc(Nc3ccc4[nH]ncc4c3)c3ccccc3n2)c1 [belumosudil, 2-{3-[4-(1H-indazol-5-ylamino)-2-quinazolinyl]phenoxy}-N-(propan-2-yl) acetamide]
dose with abnormal sperm findings and testes/epididymis organ changes in male rats (rats): 275 mg/kg/day
dose with adverse findings in female rats (increased pre- or post-implantation loss, decreased number of viable embryos) (rats): 275 mg/kg/day
dose with reduced fertility in treated males or females (rats): 275 mg/kg/day
metabolism (CYP3A4): primarily dependent on cytochrome P450 CYP3A4 activity
CYP1A2 inhibition (CYP1A2): inhibitor
Tmax (clinical): 1.5 to 2 h
increase of exposures (Cmax and AUC) following multiple dosing (clinical): 1.21-1.57 fold
AUC(0-last), geometric mean (clinical; 200 mg): 9710 ng·h/mL
AUC(0-tau), geometric mean (clinical; 200 mg): 9710 ng·h/mL
Cmax, geometric mean (clinical; 200 mg): 2080 ng/mL
T1/2, geometric mean (clinical; 200 mg): 4.901 h
half-life (clinical; 200 mg): ~5 h
participants reporting a TEAE (52 participants, Grade 1 (mild)): 3.8%
number of TEAEs judged related to belumosudil (headache): 1 event
safety and tolerability when coadministered with raltegravir, dabigatran etexilate, rosuvastatin calcium (healthy male participants, 200 mg QD): safe and well tolerated
serious adverse events or TEAEs leading to withdrawal or death (in vivo): No serious adverse events
AUC increase with high-fat and high-calorie meal compared to fasted state ([1]; single dose): 2 times
Cmax increase with high-fat and high-calorie meal compared to fasted state ([1]; single dose): 2.2 times
radioactivity recovered in feces [1, 4]: 85%
radioactivity recovered in feces as unchanged [1, 4]: 30%
radioactivity recovered in urine [1, 4]: less than 5%
binding to human […]1-acid glycoprotein [2]: 98.6%
maternal exposures (AUC) with adverse developmental outcomes, times the human exposure (AUC) at the recommended dose (pregnant rabbits; pregnant rabbits, period of organogenesis): ≥ 0.07 times
dose with embryo-fetal effects (pregnant rabbits; rabbits, oral): ≥ 50 mg/kg/day
dose with maternal toxicity (body weight loss and mortality) (pregnant rabbits; rabbits, oral): ≥ 125 mg/kg/day
Cmax and AUC increase with dose [3]: approximately proportional
solubility (solubility): pH dependent
BCRP inhibition (BCRP): inhibits
maternal exposures (AUC) with adverse developmental outcomes, times the human exposure (AUC) at the recommended dose (pregnant rats; pregnant rats, period of organogenesis): ≥ 3 times
dose with fetal malformations (pregnant rats; rats, oral, pilot study): ≥ 50 mg/kg/day
dose with maternal toxicity (reduced body weight gain) (pregnant rats; rats, oral, pilot study): 150 mg/kg/day and 300 mg/kg/day
UGT1A1 inhibition (UGT1A1): inhibitor
